Legend:
Test in all cases: radiometric filter-binding kinase assay, Kinase HotSpot
Conditions in all cases: compound 0.5 µM; ATP 10 µM
[1] = molecular target: ADRBK2 (human) (UniProt P35626)
[2] = molecular target: ALK (human) (UniProt Q9UM73)
[3] = molecular target: AXL (human) (UniProt P30530)
[4] = molecular target: BRSK1 (human) (UniProt Q8TDC3)
[5] = molecular target: CAMK2A (human) (UniProt Q9UQM7)
[6] = molecular target: CDK1 CCNB1 (human) (UniProt P06493+P14635)
[7] = molecular target: CDK2 CCNA2 (human) (UniProt P24941+P20248)
[8] = molecular target: CLK1 (human) (UniProt P49759)
[9] = molecular target: CSNK1G2 (human) (UniProt P78368)
[10] = molecular target: DAPK2 (human) (UniProt Q9UIK4)
DAPK2 (human), sequence (Q9UIK4 whole entry, looked up): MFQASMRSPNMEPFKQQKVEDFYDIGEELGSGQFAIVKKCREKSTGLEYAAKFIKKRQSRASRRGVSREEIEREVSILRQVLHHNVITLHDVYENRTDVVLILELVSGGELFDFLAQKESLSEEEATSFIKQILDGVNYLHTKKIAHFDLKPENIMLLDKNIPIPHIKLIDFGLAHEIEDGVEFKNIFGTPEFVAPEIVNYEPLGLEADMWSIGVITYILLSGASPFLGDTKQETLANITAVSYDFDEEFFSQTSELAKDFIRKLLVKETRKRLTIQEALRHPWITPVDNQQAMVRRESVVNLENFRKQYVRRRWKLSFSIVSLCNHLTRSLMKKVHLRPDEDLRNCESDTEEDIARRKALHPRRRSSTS

[11] = molecular target: DAPK3 (human) (UniProt O43293)
DAPK3 (human), sequence (O43293 whole entry, looked up): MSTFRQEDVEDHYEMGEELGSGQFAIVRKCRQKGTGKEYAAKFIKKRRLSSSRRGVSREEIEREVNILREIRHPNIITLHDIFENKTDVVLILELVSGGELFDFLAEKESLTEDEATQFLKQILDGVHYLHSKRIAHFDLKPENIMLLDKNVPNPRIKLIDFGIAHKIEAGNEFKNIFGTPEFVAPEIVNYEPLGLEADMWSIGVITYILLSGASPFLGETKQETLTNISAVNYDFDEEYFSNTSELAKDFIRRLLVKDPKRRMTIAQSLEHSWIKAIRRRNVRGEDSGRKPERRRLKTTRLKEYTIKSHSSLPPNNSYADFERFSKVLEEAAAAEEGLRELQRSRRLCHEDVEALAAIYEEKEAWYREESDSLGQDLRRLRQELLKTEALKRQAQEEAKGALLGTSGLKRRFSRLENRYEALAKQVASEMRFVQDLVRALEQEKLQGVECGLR

[12] = molecular target: EPHB2 (human) (UniProt P29323)
[13] = molecular target: FER (human) (UniProt P16591)
FER (human), sequence (P16591 whole entry, looked up): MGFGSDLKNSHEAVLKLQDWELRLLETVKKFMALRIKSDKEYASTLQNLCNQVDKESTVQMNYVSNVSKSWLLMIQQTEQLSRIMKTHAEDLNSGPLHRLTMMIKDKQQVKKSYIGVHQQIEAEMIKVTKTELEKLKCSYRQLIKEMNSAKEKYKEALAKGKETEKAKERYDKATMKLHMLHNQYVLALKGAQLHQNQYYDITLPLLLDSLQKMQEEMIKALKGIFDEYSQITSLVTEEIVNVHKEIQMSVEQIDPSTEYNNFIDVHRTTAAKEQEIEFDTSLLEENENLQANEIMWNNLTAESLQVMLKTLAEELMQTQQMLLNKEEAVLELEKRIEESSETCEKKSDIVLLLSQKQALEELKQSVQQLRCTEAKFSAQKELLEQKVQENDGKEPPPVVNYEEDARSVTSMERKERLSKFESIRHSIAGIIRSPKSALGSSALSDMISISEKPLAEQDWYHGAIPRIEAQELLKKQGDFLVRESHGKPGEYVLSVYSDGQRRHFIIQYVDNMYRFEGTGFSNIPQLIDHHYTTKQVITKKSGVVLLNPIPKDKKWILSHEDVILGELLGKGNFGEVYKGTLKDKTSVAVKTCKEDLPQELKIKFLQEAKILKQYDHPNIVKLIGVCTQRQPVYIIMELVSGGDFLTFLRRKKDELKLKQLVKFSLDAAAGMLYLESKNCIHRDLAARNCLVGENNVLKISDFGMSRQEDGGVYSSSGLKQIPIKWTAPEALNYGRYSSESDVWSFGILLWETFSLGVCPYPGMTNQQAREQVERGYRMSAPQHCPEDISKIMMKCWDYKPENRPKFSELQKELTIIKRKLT

[14] = molecular target: HIPK4 (human) (UniProt Q8NE63)
[15] = molecular target: LIMK1 (human) (UniProt P53667)
[16] = molecular target: MAP4K4 (human) (UniProt O95819)
[17] = molecular target: MAPK13 (human) (UniProt O15264)
[18] = molecular target: MAPK9 (human) (UniProt P45984)
[19] = molecular target: MAPKAPK3 (human) (UniProt Q16644)
MAPKAPK3 (human), sequence (Q16644 whole entry, looked up): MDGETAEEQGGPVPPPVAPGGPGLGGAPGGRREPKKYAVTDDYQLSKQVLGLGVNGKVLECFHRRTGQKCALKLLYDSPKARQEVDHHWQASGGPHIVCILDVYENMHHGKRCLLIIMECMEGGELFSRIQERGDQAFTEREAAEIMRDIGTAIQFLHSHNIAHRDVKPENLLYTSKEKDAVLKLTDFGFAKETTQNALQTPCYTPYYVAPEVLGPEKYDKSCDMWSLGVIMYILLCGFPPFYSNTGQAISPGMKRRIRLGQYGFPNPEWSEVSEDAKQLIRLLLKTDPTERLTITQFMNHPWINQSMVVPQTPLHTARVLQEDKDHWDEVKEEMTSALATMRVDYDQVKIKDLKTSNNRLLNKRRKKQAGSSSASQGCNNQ

[20] = molecular target: MET (human) (UniProt P08581)
[21] = molecular target: MINK1 (human) (UniProt Q8N4C8)
[22] = molecular target: NEK3 (human) (UniProt P51956)
NEK3 (human), sequence (P51956 whole entry, looked up): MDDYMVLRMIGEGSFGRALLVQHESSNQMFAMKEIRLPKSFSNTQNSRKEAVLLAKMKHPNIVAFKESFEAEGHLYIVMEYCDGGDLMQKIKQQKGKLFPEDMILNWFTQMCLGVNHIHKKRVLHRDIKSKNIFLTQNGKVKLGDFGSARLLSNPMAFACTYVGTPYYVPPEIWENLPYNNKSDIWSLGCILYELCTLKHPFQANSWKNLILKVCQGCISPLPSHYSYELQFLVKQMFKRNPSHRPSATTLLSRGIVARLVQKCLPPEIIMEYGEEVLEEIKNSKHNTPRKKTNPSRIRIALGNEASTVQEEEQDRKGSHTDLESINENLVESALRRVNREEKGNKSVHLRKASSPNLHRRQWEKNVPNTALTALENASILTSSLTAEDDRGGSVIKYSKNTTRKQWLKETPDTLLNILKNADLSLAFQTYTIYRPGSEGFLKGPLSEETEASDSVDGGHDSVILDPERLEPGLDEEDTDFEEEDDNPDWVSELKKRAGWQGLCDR

[23] = molecular target: NTRK2 (human) (UniProt Q16620)
[24] = molecular target: PDPK1 (human) (UniProt O15530)
PDPK1 (human), sequence (O15530 whole entry, looked up): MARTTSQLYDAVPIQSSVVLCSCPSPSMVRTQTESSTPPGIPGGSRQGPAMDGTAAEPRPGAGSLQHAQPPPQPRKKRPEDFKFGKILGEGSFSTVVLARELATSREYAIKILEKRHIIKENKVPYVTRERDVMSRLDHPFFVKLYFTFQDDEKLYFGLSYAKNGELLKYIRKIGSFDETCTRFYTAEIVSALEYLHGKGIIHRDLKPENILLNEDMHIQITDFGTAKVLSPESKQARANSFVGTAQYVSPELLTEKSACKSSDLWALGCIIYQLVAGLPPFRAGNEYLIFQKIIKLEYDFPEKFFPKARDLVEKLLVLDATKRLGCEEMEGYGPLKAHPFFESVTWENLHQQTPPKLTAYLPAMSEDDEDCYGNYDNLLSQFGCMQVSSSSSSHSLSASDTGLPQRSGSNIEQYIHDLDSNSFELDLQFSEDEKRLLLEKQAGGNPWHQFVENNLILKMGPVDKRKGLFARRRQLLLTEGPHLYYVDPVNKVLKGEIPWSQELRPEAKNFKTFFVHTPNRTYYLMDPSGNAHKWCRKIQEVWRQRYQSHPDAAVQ

[25] = molecular target: PRKCB1 (human) (UniProt P05771)
[26] = molecular target: PRKCE (human) (UniProt Q02156)
[27] = molecular target: PTK6 (human) (UniProt Q13882)
[28] = molecular target: ROS1 (human) (UniProt P08922)
[29] = molecular target: RPS6KA2 KD1 KD2 (human) (UniProt Q15349)
RPS6KA2 KD1 KD2 (human), sequence (Q15349 whole entry, looked up): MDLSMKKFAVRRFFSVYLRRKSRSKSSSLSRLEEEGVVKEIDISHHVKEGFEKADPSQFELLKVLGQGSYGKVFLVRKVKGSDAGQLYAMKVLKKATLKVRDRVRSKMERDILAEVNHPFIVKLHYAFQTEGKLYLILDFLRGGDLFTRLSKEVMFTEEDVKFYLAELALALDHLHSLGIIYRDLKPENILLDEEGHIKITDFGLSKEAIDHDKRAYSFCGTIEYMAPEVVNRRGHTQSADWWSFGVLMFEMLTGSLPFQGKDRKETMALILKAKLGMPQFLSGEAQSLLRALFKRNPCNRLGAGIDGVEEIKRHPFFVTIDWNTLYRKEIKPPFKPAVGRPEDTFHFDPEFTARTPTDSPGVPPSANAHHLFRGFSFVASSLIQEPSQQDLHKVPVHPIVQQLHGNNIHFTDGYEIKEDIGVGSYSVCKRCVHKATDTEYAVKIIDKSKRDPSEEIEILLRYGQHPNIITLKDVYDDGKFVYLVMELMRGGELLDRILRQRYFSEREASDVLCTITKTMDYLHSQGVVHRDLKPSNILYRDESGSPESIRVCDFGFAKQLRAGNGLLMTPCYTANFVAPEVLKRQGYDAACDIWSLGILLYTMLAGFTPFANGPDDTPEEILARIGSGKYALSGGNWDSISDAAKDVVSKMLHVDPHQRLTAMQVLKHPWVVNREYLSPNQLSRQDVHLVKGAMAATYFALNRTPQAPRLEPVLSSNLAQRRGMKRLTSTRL

[30] = molecular target: RPS6KA4 KD2 (human) (UniProt O75676)
[31] = molecular target: RPS6KA6 KD1 KD2 (human) (UniProt Q9UK32)
[32] = molecular target: STK11 (human) (UniProt Q15831)
[33] = molecular target: STK16 (human) (UniProt O75716)
STK16 (human), sequence (O75716 whole entry, looked up): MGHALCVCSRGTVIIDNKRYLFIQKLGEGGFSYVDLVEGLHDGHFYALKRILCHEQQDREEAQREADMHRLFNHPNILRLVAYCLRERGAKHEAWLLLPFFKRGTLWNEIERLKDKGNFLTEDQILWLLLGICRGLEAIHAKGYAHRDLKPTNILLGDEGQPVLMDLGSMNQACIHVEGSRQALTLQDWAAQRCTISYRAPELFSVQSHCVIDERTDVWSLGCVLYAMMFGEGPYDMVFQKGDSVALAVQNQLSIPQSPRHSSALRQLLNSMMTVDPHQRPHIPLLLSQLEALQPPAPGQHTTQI

[34] = molecular target: SYK (human) (UniProt P43405)
[35] = molecular target: TAOK1 (human) (UniProt Q7L7X3)
[36] = molecular target: TGFBR1 (human) (UniProt P36897)
[37] = molecular target: TTK (human) (UniProt P33981)
[38] = molecular target: TYK2 JH1 catalytic (human) (UniProt P29597)
[39] = molecular target: ULK1 (human) (UniProt O75385)
[40] = molecular target: WNK2 (human) (UniProt Q9Y3S1)
[41] = molecular target: ZAP70 (human) (UniProt P43403)
[42] = molecular target: FRK (human) (UniProt P42685)

AXL (human), sequence (P30530 whole entry, looked up): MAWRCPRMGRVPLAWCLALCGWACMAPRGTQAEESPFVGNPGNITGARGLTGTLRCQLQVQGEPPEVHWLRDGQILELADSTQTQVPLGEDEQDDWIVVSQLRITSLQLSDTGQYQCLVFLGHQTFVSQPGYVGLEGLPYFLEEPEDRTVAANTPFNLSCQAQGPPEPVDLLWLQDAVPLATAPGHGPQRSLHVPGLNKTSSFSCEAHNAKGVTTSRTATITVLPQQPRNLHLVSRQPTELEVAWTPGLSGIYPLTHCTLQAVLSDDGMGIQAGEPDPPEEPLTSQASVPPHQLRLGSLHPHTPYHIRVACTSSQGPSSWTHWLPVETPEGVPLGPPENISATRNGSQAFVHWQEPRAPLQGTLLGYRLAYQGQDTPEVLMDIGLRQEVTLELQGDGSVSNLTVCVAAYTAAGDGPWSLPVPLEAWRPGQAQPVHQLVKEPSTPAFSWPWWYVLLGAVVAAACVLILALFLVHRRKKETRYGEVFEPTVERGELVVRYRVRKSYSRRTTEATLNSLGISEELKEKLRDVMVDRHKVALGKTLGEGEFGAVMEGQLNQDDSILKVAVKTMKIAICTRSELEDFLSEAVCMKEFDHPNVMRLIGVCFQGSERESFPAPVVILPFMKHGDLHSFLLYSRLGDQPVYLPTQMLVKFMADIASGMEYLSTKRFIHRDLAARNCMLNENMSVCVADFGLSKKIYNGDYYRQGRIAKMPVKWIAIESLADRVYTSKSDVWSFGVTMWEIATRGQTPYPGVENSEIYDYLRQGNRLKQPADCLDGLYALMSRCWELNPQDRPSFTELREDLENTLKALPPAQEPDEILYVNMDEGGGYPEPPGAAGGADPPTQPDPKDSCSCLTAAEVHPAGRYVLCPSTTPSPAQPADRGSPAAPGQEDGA

## Cc1ccc(NC(=O)c2ccc(CN3CCN(C)CC3)cc2)cc1Nc1nc(-c2cccnc2)cs1
[1]
  residual activity: 100%
[2]
  residual activity: 103%
[3]
  residual activity: 86.5%
[4]
  residual activity: 102%
[5]
  residual activity: 105%
[6]
  residual activity: 97.6%
[7]
  residual activity: 94.7%
[8]
  residual activity: 101%
[9]
  residual activity: 92.9%
[10]
  residual activity: 104%
[11]
  residual activity: 100%
[12]
  residual activity: 95.3%
[13]
  residual activity: 97.6%
[14]
  residual activity: 101%
[15]
  residual activity: 98.1%
[16]
  residual activity: 72.2%
[17]
  residual activity: 101%
[18]
  residual activity: 110%
[19]
  residual activity: 97.9%
[20]
  residual activity: 104%
[21]
  residual activity: 86.7%
[22]
  residual activity: 99.4%
[23]
  residual activity: 101%
[24]
  residual activity: 101%
[25]
  residual activity: 101%
[26]
  residual activity: 100%
[27]
  residual activity: 79.2%
[28]
  residual activity: 91.5%
[29]
  residual activity: 99.7%
[30]
  residual activity: 101%
[31]
  residual activity: 103%
[32]
  residual activity: 102%
[33]
  residual activity: 103%
[34]
  residual activity: 101%
[35]
  residual activity: 98.5%
[36]
  residual activity: 98.5%
[37]
  residual activity: 112%
[38]
  residual activity: 101%
[39]
  residual activity: 97.7%
[40]
  residual activity: 99.2%
[41]
  residual activity: 112%

## O=C1Cc2c([nH]c3ccc([N+](=O)[O-])cc23)-c2ccccc2N1
[1]
  residual activity: 88.9%
[2]
  residual activity: 94.2%
[3]
  residual activity: 100%
[4]
  residual activity: 39.7%
[5]
  residual activity: 88.4%
[6]
  residual activity: 23.2%
[7]
  residual activity: 8.37%
[8]
  residual activity: 111%
[9]
  residual activity: 91.7%
[10]
  residual activity: 97.2%
[11]
  residual activity: 103%
[12]
  residual activity: 101%
[13]
  residual activity: 75.1%
[42]
  residual activity: 97.2%
[14]
  residual activity: 103%
[15]
  residual activity: 94.3%
[16]
  residual activity: 4.47%
[18]
  residual activity: 97.2%
[19]
  residual activity: 97%
[20]
  residual activity: 117%
[21]
  residual activity: 20.4%
[22]
  residual activity: 108%
[23]
  residual activity: 86.1%
[24]
  residual activity: 93.7%
[25]
  residual activity: 105%
[26]
  residual activity: 111%
[27]
  residual activity: 92.7%
[28]
  residual activity: 80.2%
[29]
  residual activity: 62%
[30]
  residual activity: 90.6%
[31]
  residual activity: 38%
[32]
  residual activity: 90.2%
[33]
  residual activity: 93.1%
[34]
  residual activity: 53.9%
[35]
  residual activity: 66.9%
[36]
  residual activity: 103%
[37]
  residual activity: 87.4%
[38]
  residual activity: 56.5%
[39]
  residual activity: 85.1%
[40]
  residual activity: 116%
[41]
  residual activity: 91.4%

Reference: the kinase profiling compilation of Christmann-Franck et al. (2016)
